Legend:
Type in all cases: in vivo
[1] = tested on: Abutilon theophrasti (ABUTH); experiment: Post-emergence herbicidal action, greenhouse pot test; conditions: Abutilon theophrasti, 504 h, rated visually after about 3 weeks vs untreated controls, 100% = plants have died
Method in brief: (§1)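 Activity was scored by eye about 3 weeks after treatment against untreated plants, where 100% means dead plants and 0% means no difference. Plants at the one-leaf stage received a foliar spray of WP or EC formulations in water plus 0.5% additive (600 l/ha, up to 20 g/ha). Plants were grown in sandy loam pots in a greenhouse for 2–3 weeks before spraying.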

[2] = tested on: Amaranthus retroflexus (AMARE); experiment: as above; conditions: Amaranthus retroflexus, 504 h, rated visually after about 3 weeks vs untreated controls, 100% = plants have died
Method in brief: as §1

[3] = tested on: Avena fatua (AVEFA); experiment: as above; conditions: Avena fatua, 504 h, 20 g/ha, rated visually after about 3 weeks vs untreated controls, 100% = plants have died, read-out: Post-emergence action at 20 g/ha against AVEFA in %
Method in brief: as §1

[4] = tested on: Lolium rigidum (LOLRI); experiment: as above; conditions: Lolium rigidum, 504 h, dosage 20 g/ha, read-out: Post-emergence action against LOLRI in %
Method in brief: as §1

[5] = tested on: Pharbitis purpurea (PHBPU); experiment: as above; conditions: Ipomoea purpurea, 504 h, read-out: Post-emergence action against PHBPU in %
Method in brief: as §1

[6] = tested on: Polygonum convolvulus (POLCO); experiment: as above; conditions: Fallopia convolvulus, 504 h, read-out: Post-emergence action against POLCO in %
Method in brief: as §1

[7] = tested on: Veronica persica (VERPE); experiment: as above; conditions: Veronica persica, 504 h, read-out: Post-emergence action against VERPE
Method in brief: as §1

[8] = tested on: Viola tricolor (VIOTR); experiment: as above; conditions: Viola tricolor, 504 h, read-out: Post-emergence action against VIOTR
Method in brief: as §1

[9] = tested on: Alopecurus myosuroides (ALOMY); experiment: Post-emergence herbicidal action, greenhouse pot test (also comparative test C); conditions: Alopecurus myosuroides, 504 h, rated visually after about 3 weeks vs untreated controls, 100% = plants have died
Method in brief: (§2)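 Visual rating against untreated controls, about 3 weeks after spraying, from 0% (like control) to 100% (plants dead). Weeds were treated at the one-leaf stage, 2–3 weeks after sowing in sandy loam, with aqueous WP/EC spray containing 0.5% additive at 600 l/ha. Doses were ≤20 g/ha, or ≤5 g/ha for comparative test C.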

[10] = tested on: Echinochloa crus-galli (ECHCG); experiment: as above
Method in brief: as §2

[11] = tested on: Matricaria inodora (MATIN); experiment: as above; conditions: Tripleurospermum inodorum, 504 h, read-out: Post-emergence action against MATIN in %
Method in brief: as §2

[12] = tested on: Setaria viridis (SETVI); experiment: as above; conditions: Setaria viridis, 504 h
Method in brief: as §2

[13] = tested on: Glycine max (GLXMA); experiment: Post-emergence crop plant compatibility, greenhouse pot test; conditions: 1.25 g/ha
Method in brief: (§3)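 Greenhouse pot test; post-emergence foliar spray at one-leaf stage, WP or EC in water + 0.5% additive, 600 l/ha. Visual rating after ~3 wk, % relative to untreated (0–100%).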

[14] = tested on: Triticum aestivum (TRZAS); experiment: as above; conditions: vs untreated controls
Method in brief: as §3

[15] = tested on: Zea mays (ZEAMX); experiment: as above; conditions: 1.25 g/ha, vs untreated controls
Method in brief: as §3

[16] = tested on: Oryza sativa (ORYSA); experiment: Post-emergence crop plant compatibility, greenhouse pot test (also comparative test C); conditions: for Post-emergence action against ORYSA (crop plant compatibility): vs untreated controls
Method in brief: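 Visual damage versus untreated plants (0% = like control, 100% = plants died) was scored about 3 weeks after a post-emergence spray in greenhouse pots. Treatment: one-leaf stage, WP or EC in water at 600 l/ha with 0.5% additive; a/b/c mark different dosages on the same crop.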

COCCOC(=O)COc1ccccc1Oc1cc(-n2c(=O)cc(C(F)(F)F)n(C)c2=O)c(F)cc1[N+](=O)[O-] [I.6-1, 2-Methoxyethyl (2-{4-fluoro-5-[3-methyl-2,6-dioxo-4-(trifluoromethyl)-3,6-dihydropyrimidin-1(2H)-yl]-2-nitrophenoxy}phenoxy)acetate]
pest or weed control at 1.25 g/ha ([1]; 1.25 g/ha, read-out: Post-emergence action at 1.25 g/ha against ABUTH in %): 100% | pest or weed control at 5 g/ha ([1]; 5 g/ha, read-out: Post-emergence action at 5 g/ha against ABUTH in %): 100% | pest or weed control at 20 g/ha ([1]; 20 g/ha, read-out: Post-emergence action at 20 g/ha against ABUTH in %): 100% | pest or weed control at 1.25 g/ha ([2]; 1.25 g/ha, read-out: Post-emergence action at 1.25 g/ha against AMARE in %): 100% | pest or weed control at 5 g/ha ([2]; 5 g/ha, read-out: Post-emergence action at 5 g/ha against AMARE in %): 100% | pest or weed control at 20 g/ha ([2]; 20 g/ha, read-out: Post-emergence action at 20 g/ha against AMARE in %): 100% | pest or weed control at 20 g/ha [3]: 100% | pest or weed control at 20 g/ha [4]: 80% | pest or weed control at 5 g/ha ([5]; dosage 5 g/ha): 100% | pest or weed control at 20 g/ha ([5]; dosage 20 g/ha): 100% | pest or weed control at 5 g/ha ([6]; dosage 5 g/ha): 100% | pest or weed control at 20 g/ha ([6]; dosage 20 g/ha): 100% | pest or weed control at 5 g/ha ([7]; 5 g/ha): 100% | pest or weed control at 20 g/ha ([7]; 20 g/ha): 100% | pest or weed control at 1.25 g/ha ([8]; 1.25 g/ha): 100% | pest or weed control at 5 g/ha ([8]; 5 g/ha): 100% | pest or weed control at 20 g/ha ([8]; 20 g/ha): 100% | pest or weed control at 5 g/ha ([9]; 5 g/ha, read-out: Post-emergence action at 5 g/ha against ALOMY in %): 80% | pest or weed control at 20 g/ha ([9]; 20 g/ha, read-out: Post-emergence action at 20 g/ha against ALOMY in %): 100% | Post-emergence action at 1.25 g/ha against ECHCG in % ([10]; 1.25 g/ha, rated visually after about 3 weeks vs untreated controls, 100% = plants have died): 90% | pest or weed control at 5 g/ha ([10]; Echinochloa crus-galli, 504 h, dosage 5 g/ha, read-out: Post-emergence action against ECHCG in %): 90% | pest or weed control at 20 g/ha ([10]; Echinochloa crus-galli, 504 h, dosage 20 g/ha, read-out: Post-emergence action against ECHCG in %): 100% | pest or weed control at 5 g/ha ([11]; dosage 5 g/ha): 100% | pest or weed control at 20 g/ha ([11]; dosage 20 g/ha): 100% | pest or weed control at 20 g/ha ([12]; 20 g/ha, read-out: Post-emergence action against SETVI): 100% | pest or weed control at 1.25 g/ha ([12]; dosage 1.25 g/ha, read-out: Post-emergence action against SETVI in %): 100% | pest or weed control at 5 g/ha ([12]; dosage 5 g/ha, read-out: Post-emergence action against SETVI in %): 100% | Post-emergence action against GLXMA in % [13]: 20% | Post-emergence action against TRZAS (crop plant compatibility) ([14]; 1.25 g/ha): 10% | Post-emergence action against TRZAS (crop plant compatibility) ([14]; 5 g/ha): 20% | Post-emergence action against ZEAMX (crop plant compatibility) [15]: 20% | Post-emergence action against ORYSA (crop plant compatibility) ([16]; 1.25 g/ha): 0% | Post-emergence action against ORYSA (crop plant compatibility) ([16]; 5 g/ha): 10% | Post-emergence action against ORYSA in % ([16]; 20 g/ha, crop plant compatibility): 20%

Reference: US20240025862A1, “SUBSTITUTED N-PHENYLURACILS AND SALTS THEREOF, AND USE THEREOF AS HERBICIDAL ACTIVE SUBSTANCES” (Bayer Aktiengesellschaft, priority 2020, published 2024)
